In general, EC50 refers to the concentration needed to bring the measured effect to its halfway point.

The source of these data is US20110195900A1, “PEPTIDIC PTH RECEPTOR AGONISTS” (FERRING B.V., priority 2008, published 2011).

Where two headings read alike, the source gives them in different places. Non-standard residues stand in square brackets, D forms with d. Residues, ends and D or L forms follow the SMILES beside them. 1Nal = N[C@@H](Cc1cccc2ccccc12)C(=O)O; 2Nal = N[C@@H](Cc1ccc2ccccc2c1)C(=O)O; β3hI = CC[C@H](C)[C@H](N)CC(=O)O; β3hF = N[C@H](CC(=O)O)Cc1ccccc1; Nle = CCCC[C@H](N)C(=O)O; βAla = NCCC(=O)O

The assay deals with T1, human PTH-1 receptor (Homo sapiens, UniProt Q03431).
T1 construct: expressed in transfected cells; host or cells: HEK-293
T1 sequence (Q03431 27-593): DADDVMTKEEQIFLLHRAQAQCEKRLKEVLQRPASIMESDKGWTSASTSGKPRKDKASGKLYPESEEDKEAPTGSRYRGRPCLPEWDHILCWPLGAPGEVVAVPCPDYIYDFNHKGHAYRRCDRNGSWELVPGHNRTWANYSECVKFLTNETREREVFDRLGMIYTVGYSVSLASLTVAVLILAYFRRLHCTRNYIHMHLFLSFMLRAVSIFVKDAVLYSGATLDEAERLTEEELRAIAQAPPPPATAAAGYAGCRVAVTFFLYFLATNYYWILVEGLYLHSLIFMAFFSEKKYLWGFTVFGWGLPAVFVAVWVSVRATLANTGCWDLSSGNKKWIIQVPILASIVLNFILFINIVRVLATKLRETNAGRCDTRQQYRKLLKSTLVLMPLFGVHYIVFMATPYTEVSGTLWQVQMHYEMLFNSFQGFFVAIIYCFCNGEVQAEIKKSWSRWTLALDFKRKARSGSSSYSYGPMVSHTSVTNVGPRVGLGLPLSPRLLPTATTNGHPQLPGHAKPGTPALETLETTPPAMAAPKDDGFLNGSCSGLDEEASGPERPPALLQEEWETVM
Briefly: Reporter gene assay (CRE-luciferase) for agonist activity in transiently transfected HEK-293 cells. In kind it is cell-based. The following applies: for hPTHR-2/hPTHR-1: ratio of EC50 values, selectivity for hPTH-1 receptor over hPTH-2 receptor. As for the experimental part:
Agonist activity of compounds on the human PTH-1 receptor was determined in a reporter gene assay by transiently transfecting HEK-293 cells with plasmids encoding human PTH-1 receptor under control of the SV40 promoter and a luciferase reporter gene under control of cAMP responsive elements (CRE). See Himmler et al, J. Recept. Res. 13 (1993) 79-94, for further guidance on this assay. Transfected cells were exposed to serial dilutions of compounds for 4-5 hours followed by lysis of cells, determination of luciferase activity, and determination of compound efficacies and EC50 values through non-linear regression.
PTH (1-34) was used as an internal control in each experiment and compounds were tested in at least three independent experiments. To determine selectivity, compounds were tested in luciferase-based transcriptional reporter gene assays expressing the human PTH-2 receptor.

[1] abbreviates: Table 3, HEK-293 cells, CRE-luciferase, 4-5 hours exposure, read-out: hPTHR-1 EC50.

Molecule `CCCC[C@H](NC(=O)[C@H](CC(C)C)NC(=O)[C@H](CCC(N)=O)NC(=O)[C@@H](NC(=O)[C@H](CCC(=O)O)NC(=O)[C@H](CO)NC(=O)[C@@H](NC(=O)[C@@H](N)CO)C(C)C)[C@@H](C)CC)C(=O)N[C@@H](Cc1c[nH]cn1)C(=O)N[C@@H](CO)C(=O)N[C@@H](CC(C)C)C(=O)NCC(=O)N[C@@H](CCCCN)C(=O)N[C@@H](Cc1c[nH]cn1)C(=O)N[C@@H](CC(C)C)C(=O)N[C@@H](CCCCN)C(=O)N[C@@H](CO)C(=O)N[C@H](CC(=O)N[C@@H](CCC(=O)O)C(=O)N[C@@H](CCCNC(=N)N)C(=O)N[C@H](C(=O)N[C@@H](CCC(=O)O)C(=O)N[C@@H](Cc1cccc2ccccc12)C(=O)N[C@@H](CC(C)C)C(=O)N[C@@H](CCCNC(=N)N)C(=O)N[C@@H](CCCCN)C(=O)N[C@@H](CC(C)C)C(=O)N[C@@H](CC(C)C)C(=O)N[C@@H](CCC(N)=O)C(=O)N[C@@H](CCCNC(=N)N)C(=O)N[C@H](C(=O)N[C@@H](Cc1c[nH]cn1)C(=O)N[C@@H](CCC(=O)O)C(=O)N[C@@H](Cc1ccccc1)C(N)=O)C(C)C)C(C)C)[C@@H](C)CC` [SEQ ID NO: 40, [Nle^8, Ser^10, Lys^16, β-hIle^18,1-Nal^23, Leu^27, Arg^30, Glu^33] hPTH(1-34)-NH2] (H-SVSEIQL[Nle]HSLGKHLKS[β3hI]ERVE[1Nal]LRKLLQRVHEF-NH2) showed an EC50 of 0.12 nM. The hPTHR-2/hPTHR-1 (Table 3) was 69.

Regarding `CCCC[C@H](NC(=O)[C@H](CC(C)C)NC(=O)[C@H](CCC(N)=O)NC(=O)[C@@H](NC(=O)[C@H](CCC(=O)O)NC(=O)[C@H](CO)NC(=O)[C@@H](NC(=O)[C@@H](N)CO)C(C)C)[C@@H](C)CC)C(=O)N[C@@H](Cc1c[nH]cn1)C(=O)N[C@@H](CC(N)=O)C(=O)N[C@@H](CC(C)C)C(=O)NCC(=O)N[C@@H](CCCCN)C(=O)N[C@@H](Cc1c[nH]cn1)C(=O)N[C@@H](CC(C)C)C(=O)N[C@@H](CC(N)=O)C(=O)N[C@@H](CO)C(=O)N[C@H](CC(=O)N[C@@H](CCC(=O)O)C(=O)N[C@@H](CCCNC(=N)N)C(=O)N[C@H](C(=O)N[C@@H](CCC(=O)O)C(=O)N[C@@H](Cc1cccc2ccccc12)C(=O)N[C@@H](CC(C)C)C(=O)N[C@@H](CCCNC(=N)N)C(=O)N[C@@H](CCCCN)C(=O)N[C@@H](CC(C)C)C(=O)N[C@@H](CC(C)C)C(=O)N[C@@H](CCC(N)=O)C(=O)N[C@@H](CC(=O)O)C(=O)N[C@H](C(=O)N[C@@H](Cc1c[nH]cn1)C(=O)N[C@@H](CCC(=O)O)C(=O)N[C@@H](Cc1ccccc1)C(N)=O)C(C)C)C(C)C)[C@@H](C)CC` [SEQ ID NO: 27, [Nle^8, β-hIle^18,1-Nal^23, Leu^27, Glu^33] hPTH (1-34)-NH2] (H-SVSEIQL[Nle]HNLGKHLNS[β3hI]ERVE[1Nal]LRKLLQDVHEF-NH2; N-terminus assumed), the EC50 turned out to be 0.12 nM. Further, under “Table 3”, the hPTHR-2/hPTHR-1 is 344.

The molecule `CCCC[C@H](NC(=O)[C@H](CC(C)C)NC(=O)[C@H](CCC(N)=O)NC(=O)[C@@H](NC(=O)[C@H](CCC(=O)O)NC(=O)[C@H](CO)NC(=O)[C@@H](NC(=O)[C@@H](N)CO)C(C)C)[C@@H](C)CC)C(=O)N[C@@H](Cc1c[nH]cn1)C(=O)N[C@@H](CC(N)=O)C(=O)N[C@@H](CC(C)C)C(=O)NCC(=O)N[C@@H](CCCCN)C(=O)N[C@@H](Cc1c[nH]cn1)C(=O)N[C@@H](CC(C)C)C(=O)N[C@@H](CC(N)=O)C(=O)N[C@@H](CO)C(=O)N[C@H](CC(=O)N[C@@H](CCC(=O)O)C(=O)N[C@@H](CCCNC(=N)N)C(=O)N[C@H](C(=O)N[C@@H](CCC(=O)O)C(=O)N[C@@H](Cc1cccc2ccccc12)C(=O)N[C@@H](CC(C)C)C(=O)N[C@@H](CCCNC(=N)N)C(=O)N[C@@H](CCCCN)C(=O)N[C@@H](CC(C)C)C(=O)N[C@@H](CC(C)C)C(=O)N[C@@H](CCC(N)=O)C(=O)N[C@@H](CC(=O)O)C(=O)N[C@H](C(=O)N[C@@H](Cc1c[nH]cn1)C(=O)N[C@@H](CC(N)=O)C(=O)N[C@@H](Cc1ccccc1)C(N)=O)C(C)C)C(C)C)Cc1ccccc1` [SEQ ID NO: 46, [Nle^8, β-hPhe^18,1-Nal^23, Leu^27] hPTH (1-34)-NH2] (H-SVSEIQL[Nle]HNLGKHLNS[β3hF]ERVE[1Nal]LRKLLQDVHNF-NH2) displayed an EC50 of 0.11 nM. The hPTHR-2/hPTHR-1 (Table 3) was found to be 94.

Turning to `CCCC[C@H](NC(=O)[C@H](CO)NC(=O)[C@H](CC(N)=O)NC(=O)[C@H](CC(C)C)NC(=O)[C@H](Cc1c[nH]cn1)NC(=O)[C@H](CCCCN)NC(=O)CNC(=O)[C@H](CC(C)C)NC(=O)[C@H](CC(N)=O)NC(=O)[C@H](Cc1c[nH]cn1)NC(=O)[C@H](CCCC)NC(=O)[C@H](CC(C)C)NC(=O)[C@H](CCC(N)=O)NC(=O)[C@@H](NC(=O)[C@H](CCC(=O)O)NC(=O)[C@H](CO)NC(=O)[C@@H](NC(=O)[C@@H](N)CO)C(C)C)[C@@H](C)CC)C(=O)NCCC(=O)N[C@@H](CCCNC(=N)N)C(=O)N[C@H](C(=O)N[C@@H](CCC(=O)O)C(=O)N[C@@H](Cc1cccc2ccccc12)C(=O)N[C@@H](CC(C)C)C(=O)N[C@@H](CCCNC(=N)N)C(=O)N[C@@H](CCCCN)C(=O)N[C@@H](CCCCN)C(=O)N[C@@H](CC(C)C)C(=O)N[C@@H](CCC(N)=O)C(=O)N[C@@H](CC(=O)O)C(=O)N[C@H](C(=O)N[C@@H](Cc1c[nH]cn1)C(=O)N[C@@H](CC(N)=O)C(=O)N[C@@H](Cc1ccccc1)C(N)=O)C(C)C)C(C)C` [SEQ ID NO: 7, [Nle^8,18, β-Ala^19,1-Nal^23] hPTH (1-34)-NH2] (H-SVSEIQL[Nle]HNLGKHLNS[Nle][βAla]RVE[1Nal]LRKKLQDVHNF-NH2), under setting [1], the EC50 was 0.21 nM. The hPTHR-2/hPTHR-1 (Table 3) came out at 52.

As to `CCCC[C@H](NC(=O)CCNC(=O)[C@H](CC(N)=O)NC(=O)[C@H](CC(C)C)NC(=O)[C@H](Cc1c[nH]cn1)NC(=O)[C@H](CCCCN)NC(=O)CNC(=O)[C@H](CC(C)C)NC(=O)[C@H](CC(N)=O)NC(=O)[C@H](Cc1c[nH]cn1)NC(=O)[C@H](CCCC)NC(=O)[C@H](CC(C)C)NC(=O)[C@H](CCC(N)=O)NC(=O)[C@@H](NC(=O)[C@H](CCC(=O)O)NC(=O)[C@H](CO)NC(=O)[C@@H](NC(=O)[C@H](C)N)C(C)C)[C@@H](C)CC)C(=O)N[C@@H](CCC(=O)O)C(=O)N[C@@H](CCCNC(=N)N)C(=O)N[C@H](C(=O)N[C@@H](CCC(=O)O)C(=O)N[C@@H](Cc1ccc2ccccc2c1)C(=O)N[C@@H](CC(C)C)C(=O)N[C@@H](CCCNC(=N)N)C(=O)N[C@@H](CCCCN)C(=O)N[C@@H](CCCCN)C(=O)N[C@@H](CC(C)C)C(=O)N[C@@H](CCC(N)=O)C(=O)N[C@@H](CC(=O)O)C(=O)N[C@H](C(=O)N[C@@H](Cc1c[nH]cn1)C(=O)N[C@@H](CC(N)=O)C(=O)N[C@@H](Cc1ccccc1)C(N)=O)C(C)C)C(C)C` [SEQ ID NO: 12, [Ala^1, Nle^8,18, β-Ala^17,2-Nal^23] hPTH (1-34)-NH2] (H-AVSEIQL[Nle]HNLGKHLN[βAla][Nle]ERVE[2Nal]LRKKLQDVHNF-NH2), the EC50 under setting [1] came out at 0.22 nM. For the same molecule, the hPTHR-2/hPTHR-1 (Table 3) was determined as 430.

Regarding `CCCC[C@H](NC(=O)CCNC(=O)[C@H](CC(N)=O)NC(=O)[C@H](CC(C)C)NC(=O)[C@H](Cc1c[nH]cn1)NC(=O)[C@H](CCCCN)NC(=O)CNC(=O)[C@H](CC(C)C)NC(=O)[C@H](CC(N)=O)NC(=O)[C@H](Cc1c[nH]cn1)NC(=O)[C@H](CCCC)NC(=O)[C@H](CC(C)C)NC(=O)[C@H](CCC(N)=O)NC(=O)[C@@H](NC(=O)[C@H](CCC(=O)O)NC(=O)[C@H](CO)NC(=O)[C@@H](NC(=O)[C@H](C)N)C(C)C)[C@@H](C)CC)C(=O)N[C@@H](CCC(=O)O)C(=O)N[C@@H](CCCNC(=N)N)C(=O)N[C@H](C(=O)N[C@@H](CCC(=O)O)C(=O)N[C@@H](Cc1cccc2ccccc12)C(=O)N[C@@H](CC(C)C)C(=O)N[C@@H](CCCNC(=N)N)C(=O)N[C@@H](CCCCN)C(=O)N[C@@H](CC(C)C)C(=O)N[C@@H](CC(C)C)C(=O)N[C@@H](CCC(N)=O)C(=O)N[C@@H](CC(=O)O)C(=O)N[C@H](C(=O)N[C@@H](Cc1c[nH]cn1)C(=O)N[C@@H](CC(N)=O)C(=O)N[C@@H](Cc1ccccc1)C(N)=O)C(C)C)C(C)C` [SEQ ID NO: 14, [Ala^1, Nle^8,18, β-Ala^17,1-Nal^23, Leu^27] hPTH (1-34)-NH2] (H-AVSEIQL[Nle]HNLGKHLN[βAla][Nle]ERVE[1Nal]LRKLLQDVHNF-NH2; N-terminus assumed), for the setting “Table 3”, the hPTHR-2/hPTHR-1 was determined as 449.
